What was measured:
[1] = tested on: Vibrio alginolyticus; test: Antimicrobial activity against Vibrio alginolyticus ATCC 17749 at 0.2 ug/disk after 24 hrs by paper disk method; assay type: functional; settings: ATCC 17749, 24 h, read-out: IZ
[2] = tested on: Umbelopsis ramanniana; test: Antimicrobial activity against Mortierella ramanniana at 0.2 ug/disk after 24 hrs by paper disk method; assay type: functional; settings: read-out: IZ

`CC(C)CCCC(C)COS(=O)(=O)O` (stereo not drawn) gave a zone of inhibition at 0.2 µg/disc [1] of 12 mm and a zone of inhibition at 0.2 µg/disc [2] of 10 mm.
Work on `C=CC/C=C\C/C=C\CCOS(=O)(=O)O` yielded a zone of inhibition at 0.2 µg/disc [1] of 12 mm and a zone of inhibition at 0.2 µg/disc [2] of 10 mm.
With `CC/C=C\C/C=C\CCCOS(=O)(=O)O` the zone of inhibition at 0.2 µg/disc [1] was 12 mm and the zone of inhibition at 0.2 µg/disc [2] was 10 mm.
Molecule `CC/C=C/C/C=C\CCCOS(=O)(=O)O` has a zone of inhibition at 0.2 µg/disc [1] of 12 mm and a zone of inhibition at 0.2 µg/disc [2] of 10 mm.

Reference: ChEMBL document CHEMBL1148090, “Antibacterial and antifungal sulfated alkane and alkenes from the hepatopancreas of the ascidian Halocynthia roretzi” (1994)
